Source: patent US20060252725A1, “Use of prebiotics for preventing or treating oxidation stress” (priority 2002, published 2006)

Columns and labels:
Assay type in all cases: in vivo, rat (Wistar-Han)
lipid peroxidation [1] = assay: Plasma TBARS in rats after 4 weeks of diet
Protocol: (§1) 40 weaned male rats of the Wistar-Han type (IFFA-CREDO; L'Arbresle, France) 6 week old and weighing approximately 150 g were used. The rats were placed in cages with a wire mesh back in a temperature-controlled room (22° C.) with day/night cycles of 12 hours. The animals were treated according to the recommendations of the INRA Ethics Committee, decree No. 87-848.
(§2) First of all the rats were fed following a semi-purified starch-based diet for 7 days: They were then randomly divided into 4 groups of 10 rats: one starch group (A), one fructose group (F), one starch+FOS group (A/FOS) and one fructose+FOS group (F/FOS). They then followed their appropriate diet for 4 weeks. […]
(§3) The FOS (Raftilose® P95) were obtained from ORAFTI, Thienen, Belgium. They were introduced into the food gradually in order to avoid diarrhoea which could occur in response to too rapid an administration of large quantities of this compound. […]
(§4) 4 days before sacrifice, the animals were housed individually in stainless steel cages with ad libitum access to the water and food. Urine-samples were recovered 24 hours before sacrifice in 50 ml graduated tubes, the volumes were precisely measured, the samples were then centrifuged and kept at −80° C. until analysis. […]
(§5) The levels of plasma TBARS were determined by spectrofluorometry on an LS 5 device (Perkin Elmer, Norwalk, Conn., USA). […]

[2] = Plasma vitamin E concentration and vitamin E/triglycerides ratio in rats after 4 weeks of diet; settings: diet for 4 weeks
Protocol: as §1
(§6) First of all the rats were fed following a semi-purified starch-based diet for 7 days: They were then randomly divided into 4 groups of 10 rats: one starch group (A), one fructose group (F), one starch+FOS group (A/FOS) and one fructose+FOS group (F/FOS). They then followed their appropriate diet for 4 weeks.
(§7) The food and distilled water were provided ad libitum. The composition of the food rations was as follows (in g/kg):
The FOS (Raftilose® P95) were obtained from ORAFTI, Thienen, Belgium. They were introduced into the food gradually in order to avoid diarrhoea which could occur in response to too rapid an administration of large quantities of this compound. Raftilose® P95 is a mixture of Glucosyl-(Fructosyl)n-Fructose (64%) and of (Fructosyl)m-Fructose (36%) with average degrees of polymerization of 4.8.
as §4, with “analysis. At the time of sacrifice the rats were weighed, then anesthetized using sodium pentobarbital (intra-peritoneal injection at 40 mg/kg) and killed.” for “analysis.”
The plasma concentrations of vitamin E were determined by reversed-phase high performance liquid chromatography on a Kontron series 400 device (Kontron St Quentin en Yvelines, France) using a hexane extract. α-tocopherol acetate (Sigma) was added to the samples as internal control. […] The compounds were detected by UV (292 nm) then quantified with internal and external calibrations using control solutions.

[3] = Plasma triglyceride concentration in rats after 4 weeks of diet; settings: diet for 4 weeks, average of 10 animals ± standard deviation
Protocol: as §1, §6, §7, §3, §4

lipid peroxidation [4] = assay: Urinary TBARS in rats after 4 weeks of diet; settings: diet for 4 weeks
Protocol: as §1, §2, §3, §4, §5

heart lipids = assay: Heart TBARS: susceptibility of heart lipids to FeSO4-ascorbate induced peroxidation; settings: rats, diet for 4 weeks
Protocol: as §1, §2, §3, §4, §5

[5] = Fructose vs Starch group, Fructose+FOS vs Fructose group

## O=C(CO)[C@@H](O)[C@H](O)[C@H](O)CO [Fructose]
Lipid peroxidation [1]; diet ad libitum for 4 weeks, FOS 100 g/kg diet, sugar 650 or 550 g/kg, average of 10 animals ± standard deviation
  Plasma TBARS: 2.14 ± 0.07 nmol/mL
Lipid peroxidation [1]; diet for 4 weeks, Fructose vs Starch group, Fructose+FOS vs Fructose group
  Plasma TBARS, comparison between diet groups: significantly higher
[2]; diet rich in fructose vs starch diet, supplementation with FOS
  Ratio Vitamin E/TG, effect of the diet: lowers the ratio Vitamin E/TG
[2]; plasma ratio, average of 10 animals ± standard deviation
  Vitamin E/TG: 2.68 ± 0.12 µg/µmol
[2]; plasma, average of 10 animals ± standard deviation
  Vitamin E: 9.74 ± 0.92 µg/mL
[3]
  Triglycerides (TG): 3.73 ± 0.45 mM
Lipid peroxidation [4]; [5]
  Urinary TBARS, comparison between diet groups: significantly higher
Lipid peroxidation [4]; urine of 24 hours, average of 10 animals ± standard deviation
  Urinary TBARS: 21.97 ± 1.58 nmol/24 h
Heart lipids; [5]
  Heart TBARS, comparison between diet groups: significantly higher
Heart lipids; heart homogenate, FeSO4 (2 μmol/l)-ascorbate (50 μmol/l), 30 minutes at 37° C., average of 10 animals ± standard deviation
  Heart TBARS: 98.8 ± 6.5 nmol/g of fresh weight
